Laboratory results reported in publication PMC5765548 (Journal of medicinal chemistry, 2017).

Experiments:
ALDH1L1 (rat) = molecular target: T1, ALDH1L1 (rat) (Rattus norvegicus, UniProt P28037); assay: ALDH1L1 dehydrogenase activity, NADPH formation at 340 nm; assay type: biochemical; details: read-out: IC50 ALDH1L1 (rat); 4 mM propionaldehyde, 500 μM NADP+
T1 sequence (P28037 1-902): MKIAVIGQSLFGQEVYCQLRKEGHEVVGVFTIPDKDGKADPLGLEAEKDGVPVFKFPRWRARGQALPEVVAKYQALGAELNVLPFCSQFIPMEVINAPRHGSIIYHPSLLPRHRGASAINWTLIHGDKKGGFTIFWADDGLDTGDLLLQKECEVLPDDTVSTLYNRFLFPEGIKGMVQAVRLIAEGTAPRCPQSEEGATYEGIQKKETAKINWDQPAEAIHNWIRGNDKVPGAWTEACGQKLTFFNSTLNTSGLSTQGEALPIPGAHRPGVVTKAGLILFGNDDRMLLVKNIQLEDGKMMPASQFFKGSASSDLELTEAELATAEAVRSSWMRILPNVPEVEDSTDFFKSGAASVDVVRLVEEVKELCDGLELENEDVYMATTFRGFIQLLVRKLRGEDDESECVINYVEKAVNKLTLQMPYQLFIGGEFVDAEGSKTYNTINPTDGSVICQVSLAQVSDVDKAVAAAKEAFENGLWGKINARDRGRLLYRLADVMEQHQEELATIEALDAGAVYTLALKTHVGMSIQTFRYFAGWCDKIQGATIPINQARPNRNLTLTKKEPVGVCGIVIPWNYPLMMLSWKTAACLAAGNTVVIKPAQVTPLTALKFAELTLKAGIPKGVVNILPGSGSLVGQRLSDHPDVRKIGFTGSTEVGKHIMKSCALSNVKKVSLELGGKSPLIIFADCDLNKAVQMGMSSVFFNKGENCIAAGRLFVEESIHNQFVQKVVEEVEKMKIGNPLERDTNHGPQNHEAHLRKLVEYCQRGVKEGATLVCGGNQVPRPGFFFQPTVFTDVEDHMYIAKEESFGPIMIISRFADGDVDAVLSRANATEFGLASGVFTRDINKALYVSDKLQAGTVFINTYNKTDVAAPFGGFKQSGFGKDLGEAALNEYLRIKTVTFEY

ALDH3A1 = molecular target: T2, ALDH3A1 (Homo sapiens, UniProt P30838); assay: ALDH3A1 dehydrogenase activity; assay type: biochemical; details: read-out: IC50 ALDH3A1; 300 μM benzaldehyde, 300 μM NADP+, pH 7.5
T2 sequence (P30838 1-453): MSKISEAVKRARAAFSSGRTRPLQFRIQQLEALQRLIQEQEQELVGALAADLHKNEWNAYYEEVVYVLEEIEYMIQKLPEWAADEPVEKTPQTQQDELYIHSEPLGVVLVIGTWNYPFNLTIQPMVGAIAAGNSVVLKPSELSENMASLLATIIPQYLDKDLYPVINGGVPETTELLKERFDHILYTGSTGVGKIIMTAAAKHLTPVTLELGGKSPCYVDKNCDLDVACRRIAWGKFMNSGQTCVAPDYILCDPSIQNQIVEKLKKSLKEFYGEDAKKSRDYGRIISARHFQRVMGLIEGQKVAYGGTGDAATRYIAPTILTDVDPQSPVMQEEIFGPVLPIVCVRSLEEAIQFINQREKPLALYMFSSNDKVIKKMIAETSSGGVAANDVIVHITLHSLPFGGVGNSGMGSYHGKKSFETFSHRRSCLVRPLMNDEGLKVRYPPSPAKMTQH

ALDH2 [1] = molecular target: T3, ALDH2 (Homo sapiens, UniProt P05091); details: 1 mM propionaldehyde
T3 sequence (P05091 18-517): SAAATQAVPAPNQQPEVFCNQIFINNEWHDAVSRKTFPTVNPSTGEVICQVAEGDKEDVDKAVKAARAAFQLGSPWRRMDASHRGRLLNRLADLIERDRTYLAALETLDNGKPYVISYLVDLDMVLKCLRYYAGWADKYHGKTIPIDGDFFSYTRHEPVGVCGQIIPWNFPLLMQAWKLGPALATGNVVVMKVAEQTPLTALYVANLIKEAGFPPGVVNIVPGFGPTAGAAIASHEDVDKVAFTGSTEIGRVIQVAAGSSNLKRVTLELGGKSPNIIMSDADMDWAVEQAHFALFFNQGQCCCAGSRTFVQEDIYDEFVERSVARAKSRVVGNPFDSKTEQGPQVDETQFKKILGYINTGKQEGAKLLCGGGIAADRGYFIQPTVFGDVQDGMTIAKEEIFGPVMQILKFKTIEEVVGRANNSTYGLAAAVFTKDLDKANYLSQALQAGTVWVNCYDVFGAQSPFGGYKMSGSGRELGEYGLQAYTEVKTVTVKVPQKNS

ALDH1A1 [2] = molecular target: T4, ALDH1A1 (Homo sapiens, UniProt P00352); assay: ALDH1A1 dehydrogenase activity, NADH formation at 340 nm; assay type: biochemical; details: for IC50: read-out: IC50 ALDH1A1, 100 μM propionaldehyde, 200 μM NAD+, 1% DMSO, pH 7.5, 25 °C; for inhibition at 10 µM: read-out: Inhibition of ALDH1A1 at 10 μM
T4 sequence (P00352 1-501): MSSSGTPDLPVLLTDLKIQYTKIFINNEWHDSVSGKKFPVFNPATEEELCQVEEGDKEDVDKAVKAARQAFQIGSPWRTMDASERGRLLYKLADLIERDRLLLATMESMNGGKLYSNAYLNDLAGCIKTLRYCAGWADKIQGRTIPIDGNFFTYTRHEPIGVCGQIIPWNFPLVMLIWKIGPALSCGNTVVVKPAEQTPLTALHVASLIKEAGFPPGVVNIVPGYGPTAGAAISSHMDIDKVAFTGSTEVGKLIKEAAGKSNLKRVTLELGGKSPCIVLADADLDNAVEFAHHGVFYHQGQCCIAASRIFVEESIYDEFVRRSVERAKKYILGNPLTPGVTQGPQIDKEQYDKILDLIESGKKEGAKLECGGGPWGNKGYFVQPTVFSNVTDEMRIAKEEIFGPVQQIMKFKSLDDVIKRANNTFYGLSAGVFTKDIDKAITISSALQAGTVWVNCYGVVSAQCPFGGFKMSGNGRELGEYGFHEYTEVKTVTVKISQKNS

ALDH2 [3] = molecular target: T3, ALDH2; details: prior work; cited from earlier work
ALDH1B1 = molecular target: T5, ALDH1B1 (Homo sapiens, UniProt P30837); details: read-out: IC50 ALDH1B1; 200 μM propionaldehyde, 500 μM NAD+, 25 °C
T5 sequence (P30837 18-517): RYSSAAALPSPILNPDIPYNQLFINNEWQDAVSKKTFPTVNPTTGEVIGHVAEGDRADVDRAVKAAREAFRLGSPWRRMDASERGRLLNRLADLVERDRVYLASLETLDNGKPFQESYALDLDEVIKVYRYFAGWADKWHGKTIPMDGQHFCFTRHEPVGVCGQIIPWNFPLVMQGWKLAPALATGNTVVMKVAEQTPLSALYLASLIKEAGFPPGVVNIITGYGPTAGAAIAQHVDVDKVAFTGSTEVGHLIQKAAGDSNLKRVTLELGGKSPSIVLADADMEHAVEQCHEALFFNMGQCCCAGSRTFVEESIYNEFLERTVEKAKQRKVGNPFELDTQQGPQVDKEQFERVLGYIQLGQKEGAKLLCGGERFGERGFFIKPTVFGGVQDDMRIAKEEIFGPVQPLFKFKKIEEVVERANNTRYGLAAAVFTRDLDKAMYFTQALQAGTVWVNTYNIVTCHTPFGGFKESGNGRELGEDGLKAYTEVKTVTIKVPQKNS

ALDH1A2 = molecular target: T6, ALDH1A2 (Homo sapiens, UniProt O94788); details: read-out: IC50 ALDH1A2; 100 μM propionaldehyde, 200 μM NAD+, 1% DMSO, pH 7.5, 25 °C
T6 sequence (O94788 1-518): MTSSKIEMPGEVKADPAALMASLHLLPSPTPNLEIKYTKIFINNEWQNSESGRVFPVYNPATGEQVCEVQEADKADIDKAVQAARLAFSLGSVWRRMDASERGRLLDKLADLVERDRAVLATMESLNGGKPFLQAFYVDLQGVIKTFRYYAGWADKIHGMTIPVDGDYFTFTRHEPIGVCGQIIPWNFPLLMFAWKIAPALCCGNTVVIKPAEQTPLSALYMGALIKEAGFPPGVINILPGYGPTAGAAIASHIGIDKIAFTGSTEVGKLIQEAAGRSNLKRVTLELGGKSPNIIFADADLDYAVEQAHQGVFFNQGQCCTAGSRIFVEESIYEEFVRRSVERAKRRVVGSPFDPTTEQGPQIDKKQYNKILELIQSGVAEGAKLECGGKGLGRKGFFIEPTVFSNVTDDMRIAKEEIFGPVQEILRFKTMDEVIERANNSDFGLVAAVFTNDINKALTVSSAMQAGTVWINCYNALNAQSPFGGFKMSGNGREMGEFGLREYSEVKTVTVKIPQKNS

ALDH1A3 = molecular target: T7, ALDH1A3 (Homo sapiens, UniProt P47895); details: read-out: IC50 ALDH1A3; 100 μM propionaldehyde, 200 μM NAD+, 1% DMSO, pH 7.5, 25 °C
T7 sequence (P47895 1-512): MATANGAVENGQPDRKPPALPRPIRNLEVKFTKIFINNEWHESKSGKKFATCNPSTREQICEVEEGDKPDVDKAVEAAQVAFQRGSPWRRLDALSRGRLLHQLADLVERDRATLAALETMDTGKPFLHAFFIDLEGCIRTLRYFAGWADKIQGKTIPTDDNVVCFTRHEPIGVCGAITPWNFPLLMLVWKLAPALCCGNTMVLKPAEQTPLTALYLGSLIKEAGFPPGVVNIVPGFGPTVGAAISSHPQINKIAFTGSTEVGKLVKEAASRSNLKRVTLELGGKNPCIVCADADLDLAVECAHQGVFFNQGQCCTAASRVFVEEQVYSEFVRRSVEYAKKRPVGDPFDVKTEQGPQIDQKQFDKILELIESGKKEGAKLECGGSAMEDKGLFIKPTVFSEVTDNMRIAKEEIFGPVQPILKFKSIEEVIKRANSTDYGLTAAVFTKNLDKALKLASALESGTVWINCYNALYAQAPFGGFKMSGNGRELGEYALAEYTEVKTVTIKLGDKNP

ALDH2 [4] = molecular target: T3, ALDH2; assay: ALDH2 dehydrogenase activity, NADH formation at 340 nm; assay type: biochemical; details: for Emax: read-out: Max inhibition ALDH2
ALDH1A1 [5] = molecular target: T4, ALDH1A1; details: for Mode of inhibition of ALDH1A1 versus varied NAD+: 1 mM propionaldehyde

SMILES | IC50 (ALDH1L1 (rat)) | IC50 (ALDH3A1) | Mode of inhibition of ALDH2 versus varied NAD+ (ALDH2 [1]) | IC50 (ALDH1A1 [2]) | other results
CCCc1c(C)c2cc3c(C)coc3cc2oc1=O [Compound 1] | > 100 µM | > 100 µM |  |  | 
CCCc1c(C)c2cc3c(C)c(C)oc3cc2oc1=O [Compound 2] | > 100 µM | > 100 µM | competitive |  | 
Cc1oc2cc3oc(=O)c(C)c(C)c3cc2c1C [Compound 3] | > 100 µM | > 100 µM | competitive | > 100 µM | Mode of inhibition of ALDH2 with respect to varied propionaldehyde (ALDH2 [3]): non-competitive (mixed-type)
COC(=O)C(C)Oc1ccc2c(C)cc(=O)oc2c1 (centres unmarked) [Compound 4] | > 100 µM | > 100 µM | competitive | > 100 µM | IC50 (ALDH1B1): > 100 µM; IC50 (ALDH1A2): > 100 µM; IC50 (ALDH1A3): > 100 µM
CCCc1cc(=O)oc2cc3oc(C)c(C)c3cc12 [Compound 7] |  | > 100 µM |  | > 100 µM | 
Cc1oc2cc3oc(=O)c4ccccc4c3cc2c1C [Compound 9] |  | > 100 µM |  | > 100 µM | Emax (ALDH2 [4]): 50 to 60%
Cc1oc2cc3oc(=O)c4c(c3cc2c1C)CCCC4 [Compound 10] |  | > 100 µM |  |  | IC50 (ALDH1A3): > 100 µM
Cc1oc2cc3oc(=O)c4c(c3cc2c1C)CCC4 [Compound 11] |  | > 100 µM |  |  | 
Cc1oc2cc3oc(=O)c(CCC(=O)N4CCCCC4)c(C)c3cc2c1C [Compound 15] |  | > 100 µM | competitive |  | inhibition at 10 µM (ALDH2 [4]; read-out: Inhibition of ALDH2 at 10 μM): > 90%; inhibition at 10 µM (ALDH1A1 [2]): > 90%; Mode of inhibition of ALDH1A1 versus varied NAD+ (ALDH1A1 [5]): uncompetitive
Cc1c(C)c2c(cc(C)c3c(C)coc32)oc1=O [Compound 23] |  | > 100 µM |  | > 100 µM | Emax (ALDH2 [4]): 50 to 60%
Cc1cc(=O)oc2cc(OCC#N)ccc12 [Compound 30] |  |  | noncompetitive (mixed-type) |  | Mode of inhibition of ALDH1A1 versus varied NAD+ (ALDH1A1 [5]): noncompetitive
CCN(CC)c1ccc2c(C)cc(=O)oc2c1 [Compound 32] |  | > 100 µM |  |  | Fold selective for ALDH1A1 versus ALDH1A2 (ALDH1A1 [2]): 10 fold; inhibition at 10 µM (ALDH1A1 [2]): ~85%; IC50 (ALDH1B1): > 100 µM; IC50 (ALDH1A3): > 100 µM; Mode of inhibition of ALDH1A1 versus varied acetaldehyde (ALDH1A1 [5]; 1 mM NAD+, varied acetaldehyde): noncompetitive; Mode of inhibition of ALDH1A1 versus varied NAD+ (ALDH1A1 [5]): noncompetitive
Cc1c(Cc2ccccc2)c(=O)oc2cc(OS(C)(=O)=O)ccc12 [Compound 34] |  | > 100 µM |  |  | 
C/C(=N\O)c1cc2cc(Br)ccc2oc1=O [Compound 36] |  | > 100 µM | competitively | > 100 µM | IC50 (ALDH1B1): > 100 µM; IC50 (ALDH1A2): > 100 µM
O=c1c(-c2ccc(O)cc2)coc2cc(O[C@@H]3O[C@H](CO)[C@@H](O)[C@H](O)[C@H]3O)ccc12 [Daidzin, daidzin, reference compound] | > 100 µM | > 100 µM |  |  | 
